# PubChem BioAssay (NCI)
#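 Interpolation was linear, between the two tested concentrations surrounding the appropriate level; five concentrations were tested over 48 hours in 96-well plates. At the TGI there is no net growth.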 Where a SMILES comes first, the peptide text is derived from it. The star is where a group is joined. Cbz = O=C(OCc1ccccc1)*
# Assays:
# Experiment in all cases: inhibition of tumour cell growth, NCI panel, 48 h
# [1] = test system: SK-MEL-2 melanoma
# [2] = test system: SF-539 CNS
# [3] = test system: MCF7 breast
# [4] = test system: SF-295 CNS
# [5] = test system: CCRF-CEM leukemia
# [6] = test system: UACC-257 melanoma
# [7] = test system: HT29 colon
# [8] = test system: K-562 leukemia
# [9] = test system: SR leukemia
# [10] = test system: TK-10 renal
# [11] = test system: MDA-MB-231 breast
# [12] = test system: COLO 205 colon
# [13] = test system: LOX IMVI melanoma
Compound,TGI [1],TGI [2],TGI [3],TGI [4],TGI [5],TGI [6],TGI [7],TGI [8],TGI [9],TGI [10],TGI [11],TGI [12],TGI [13]
CC(=O)N1N=C(c2c(O)ccc3ccccc23)CC1c1ccc(Cl)cc1 (stereo not drawn),38.2 µM,37.4 µM,35.1 µM,54.2 µM,25.7 µM,> 100 µM,69.5 µM,43.3 µM,28.3 µM,> 100 µM,43.5 µM,39.2 µM,
Cc1ccc(S(=O)(=O)NC2=NS(=O)(=O)c3cc(C)c(Cl)cc3S2)cc1,> 100 µM,> 100 µM,> 100 µM,> 100 µM,,> 100 µM,> 100 µM,> 100 µM,> 100 µM,> 100 µM,> 100 µM,> 100 µM,> 100 µM
O=C(/C=C(\O)c1ccc(Cl)cc1)C(=O)NN=C(c1ccccc1)c1ccccc1,> 100 µM,> 100 µM,> 100 µM,> 100 µM,98.5 µM,> 100 µM,> 100 µM,> 100 µM,> 100 µM,> 100 µM,65.1 µM,74.4 µM,
Cc1nn(C(=O)Cc2ccccc2)c2c1C(c1ccccc1[N+](=O)[O-])SC(N)=N2 (stereo not drawn),,> 100 µM,> 100 µM,> 100 µM,> 100 µM,> 100 µM,> 100 µM,> 100 µM,> 100 µM,> 100 µM,> 100 µM,> 100 µM,> 100 µM
CC1SC(=O)SC1C (stereo not drawn),,> 100 µM,> 100 µM,> 100 µM,> 100 µM,> 100 µM,,> 100 µM,> 100 µM,> 100 µM,> 100 µM,> 100 µM,
O=C(Cc1ccccc1)NNc1nc(NNC(=O)c2ccncc2)nc(Nc2ccc(Cl)cc2)n1,,> 10 µM,> 10 µM,,> 10 µM,> 10 µM,,> 10 µM,> 10 µM,> 10 µM,> 10 µM,> 10 µM,> 10 µM
CN(C)CCNC(=O)c1cc(-c2nccn2C)nc2ccccc12,> 100 µM,> 100 µM,> 100 µM,,> 100 µM,> 100 µM,> 100 µM,> 100 µM,> 100 µM,> 100 µM,> 100 µM,> 100 µM,> 100 µM
CO/N=C(/C(=O)OC)c1ccccc1COc1cccc(C(F)(F)F)c1,> 100 µM,> 100 µM,85.1 µM,> 100 µM,65.1 µM,52.6 µM,> 100 µM,> 100 µM,,55.4 µM,> 100 µM,> 100 µM,> 100 µM
COC(=O)/C(=C\c1cn(C(C)=O)c2ccccc12)P(=O)(OC)OC,,38.7 µM,26.4 µM,28.5 µM,> 100 µM,,29.7 µM,> 100 µM,> 100 µM,36 µM,24.1 µM,33.3 µM,20.3 µM
O=S1c2ccccc2SCSc2ccccc21,> 100 µM,> 100 µM,> 100 µM,> 100 µM,,,> 100 µM,75.8 µM,91.1 µM,> 100 µM,> 100 µM,> 100 µM,
CC(C)(C)c1cc(C(=O)/C=C/c2ccc3c(c2)CCO3)cc(C(C)(C)C)c1O,13.1 µM,1.46 µM,> 100 µM,,> 31.5 µM,,> 27.2 µM,> 100 µM,7.39 µM,> 25.9 µM,6.54 µM,1.58 µM,> 100 µM
CC(C)c1nc2c(Cl)c3ncccc3cc2[nH]c1=O,> 100 µM,> 100 µM,> 100 µM,> 100 µM,> 100 µM,> 100 µM,> 100 µM,> 100 µM,> 100 µM,,> 100 µM,> 100 µM,
CCOC(=O)C(CC(=O)OC)NC(=O)C(CC(=O)OC)NC(=O)C(CC(=O)OC)NC(=O)C(CC(=O)OC)NC(=O)OCc1ccccc1 (stereo not drawn) (Cbz-D(OMe)D(OMe)D(OMe)D(OMe)-OEt; configuration not given here),> 100 µM,,> 100 µM,,,> 100 µM,> 100 µM,> 100 µM,> 100 µM,> 100 µM,> 100 µM,> 100 µM,
O=CC1C[C@@H](N2C(=O)O[C@@H](c3ccccc3)[C@H]2c2ccccc2)[C@@H]1COCc1ccccc1 (stereo partly drawn),30.8 µM,37 µM,55.1 µM,39.9 µM,,41.7 µM,37.8 µM,> 100 µM,45.7 µM,44.5 µM,30.7 µM,42 µM,38.6 µM
COC(=O)CCC(C)C1CCC2C3CCC4CC5CCC4(C)C3(O5)C(Br)C(Br)C12C (stereo not drawn),> 100 µM,> 100 µM,> 100 µM,> 100 µM,,> 100 µM,> 100 µM,> 100 µM,> 100 µM,> 100 µM,> 100 µM,> 100 µM,> 100 µM
